Laboratory results published in patent US20260232759A1, “PEPTIDES THAT INHIBIT INFECTION BY SARS-COV-2, THE VIRUS THAT CAUSES COVID-19 DISEASE” (Wisconsin Alumni Research Foundation, priority 2021, published 2026).
Starred links: 1 amine or outer side, 2 acyl side, 3 side chain; linkers in the order of their positions; H or OH if unused. Non-standard residues stand in square brackets, D forms with d. *: point of attachment. X2 = CC(C)CCC[C@@H](C)[C@H]1CC[C@H]2[C@@H]3CC=C4C[C@@H](OC(=O)CCOCCOCCOCCOCCNC(=O)C*)CC[C@]4(C)[C@H]3CC[C@]12C; X1 = O=C([C@H]1CNC[C@@H]1N[*:1])[*:2]; β3hE = N[C@@H](CCC(=O)O)CC(=O)O; β3hQ = NC(=O)CC[C@H](N)CC(=O)O; β3hD = NC(CC(=O)O)CC(=O)O; βAla = NCCC(=O)O

Molecular target: T1, SARS-CoV-2 S (Severe acute respiratory syndrome coronavirus 2, UniProt P0DTC2)
T1 construct: expressed in transfected cells
Assay: β-Gal complementation-based cell-cell fusion assay (S-protein-mediated fusion)
Details: for IC90: read-out: 90% inhibitory concentration (IC90), inhibition of S-mediated fusion

[1] = 50% inhibitory concentration (IC50), inhibition of S-mediated fusion
[2] = IC50, inhibition of S-mediated fusion

| Substance | IC50 [1] [nM] | IC90 [nM] | IC50 [2] [nM] |
| --- | --- | --- | --- |
| Ac-[β3hD]IS[β3hQ]INASVVNIEYEIKKLEEVA[X1]KLEESLI[β3hD]L[β3hQ]ELGSGSGC(X2)-NH2 [α/β-SARS2 HRC QE-6] | ~20 | ~100 | – |
| Ac-[β3hD]IS[β3hQ]INASVVNIEYEI[X1]KLEEVAKKLEESLI[β3hD]L[β3hQ]ELGSGSGC(X2)-NH2 [α/β-SARS2 HRC QE-5] | ~1000 | – | – |
| Ac-[β3hD]IS[β3hQ]INASVVNIEYEI[X1]KLEEVA[X1]KLEESLI[β3hD]L[β3hQ]ELGSGSGC(X2)-NH2 [α/β-SARS2 HRC QE-7] | ~20 | ~100 | ~10 |
| Ac-[β3hD]IS[β3hQ]INASVVNIEYEI[X1]KLEEVA[X1]KLEESLI[β3hD]L[β3hQ]EL[βAla]SGS[βAla]C(X2)-NH2 [α/β-SARS2 HRC QE-17] | – | – | ~10 |
| Ac-[β3hD]IS[β3hQ]INASVVNIEYEI[X1]KLEEVA[X1]KLE[β3hE]SLI[β3hD]L[β3hQ]ELGSGSGC(X2)-NH2 [α/β-SARS2 HRC QE-8] | ~100 | – | – |
| Ac-[β3hD]IS[β3hQ]INASVVNI[β3hE]YEI[X1]KLEEVA[X1]KLEESLI[β3hD]L[β3hQ]EL[βAla]SGS[βAla]C(X2)-NH2 [α/β-SARS2 HRC QE-15] | – | – | ~50 |
